Data: patent US20060069132A1, “Azolecarboxamide herbicides” (priority 2004, published 2006)

How the values were obtained:
Assay in all cases: Test C postemergence herbicide test
[1] = test system: wheat; format: in vivo, Triticum aestivum
Outline: (§1)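 Greenhouse test with a 12–14 day hold after application and visual comparison with controls. Emerged plants were 1- to 4-leaf stage (2–18 cm) when sprayed postemergence, and the paddy barnyardgrass was at 2 leaves under flooded conditions. 100 = complete control.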

[2] = test system: blackgrass; format: in vivo, Alopecurus myosuroides
Outline: as §1

[3] = test system: green foxtail; format: in vivo, Setaria viridis
Outline: as §1

[4] = Postemergence, 250 g ai/ha, scale 0 to 100, 0 no effect, 100 complete control
[5] = postemergence, 125 g ai/ha, scale 0 to 100
[6] = postemergence, 62 g ai/ha, scale 0 to 100
[7] = postemergence, 31 g ai/ha, scale 0 to 100
[8] = Postemergence, 500 g ai/ha, scale 0 to 100, 0 no effect, 100 complete control
[9] = Postemergence, 500 g ai/ha, scale 0 to 100

Structure (SMILES)	Plant response rating, Wheat [1, 4]	Plant response rating, Wheat [1, 5]	Plant response rating, Wheat [1, 6]	Plant response rating, Blackgrass [2, 4]	Plant response rating, Blackgrass [2, 5]	Plant response rating, Blackgrass [2, 7]	Plant response rating, Blackgrass [2, 6]	Plant response rating, Foxtail, Green [3, 4]	Plant response rating, Foxtail, Green [3, 5]	Plant response rating, Foxtail, Green [3, 6]	Plant response rating, Wheat [1, 8]	Blackgrass plant response rating [2, 9]	Plant response rating, Foxtail, Green [3, 8]	Wheat plant response rating [1, 9]	Foxtail, Green plant response rating [3, 9]	Blackgrass plant response rating ([2]; Postemergence, 250 g ai/ha, scale 0 to 100)
CCOC(=O)c1cccc(NC(=O)c2cc(C3(C)CC3)nn2CC)c1 [Compound 295]	45	45	45	65	65	45	45	60	50	45	–	–	–	–	–	–
CCn1nc(C(C)(C)C)cc1C(=O)Nc1cccc(OS(=O)(=O)CC)c1 [Compound 408]	–	30	30	65	50	–	40	70	60	40	40	70	80	–	–	–
CCn1nc(C2(C)CC2)cc1C(=O)Nc1cc(C(=O)N2CC=CC2)ccc1F [Compound 301]	55	45	40	90	75	–	55	60	45	40	–	45	–	40	65	–
CCn1nc(C(C)(C)C)cc1C(=O)Nc1cc(OC(F)(F)F)ccc1F [Compound 338]	35	25	25	50	45	–	40	40	40	30	45	65	50	–	–	–
CCCCOc1cccc(NC(=O)c2cc(C(C)(C)C)nn2CC)c1 [Compound 137]	30	30	30	40	40	–	40	50	50	30	–	60	–	40	50	–
CCn1nc(C(C)(C)C)cc1C(=O)Nc1cccc(C(=O)NCC2CC2)c1 [Compound 62]	10	10	10	–	40	20	40	50	50	40	–	–	–	–	–	40
